Results as given in paper PMC2919064 (Journal of medicinal chemistry, 2010).
Like-named read-outs stand apart in the source and are kept apart here. Values belong to the compound of their own block, whether it stands above or below them.

Assays:
HupT3 cells = test: MTS cell proliferation assay, pancreatic cancer cells; details: read-out: inhibition of pancreatic cancer cell lines IC50, Hup T3
Panc04.03 cells [1] = test: as above; details: read-out: inhibition of pancreatic cancer cell lines IC50, Panc 04.03
BxPC-3 cells = test: as above; details: read-out: inhibition of pancreatic cancer cell lines IC50, BxPC-3
HDAC1 = HDAC1 (Homo sapiens, UniProt Q13547); test: HDAC isoform inhibition assay
Chain of HDAC1 (Q13547 whole entry, canonical isoform): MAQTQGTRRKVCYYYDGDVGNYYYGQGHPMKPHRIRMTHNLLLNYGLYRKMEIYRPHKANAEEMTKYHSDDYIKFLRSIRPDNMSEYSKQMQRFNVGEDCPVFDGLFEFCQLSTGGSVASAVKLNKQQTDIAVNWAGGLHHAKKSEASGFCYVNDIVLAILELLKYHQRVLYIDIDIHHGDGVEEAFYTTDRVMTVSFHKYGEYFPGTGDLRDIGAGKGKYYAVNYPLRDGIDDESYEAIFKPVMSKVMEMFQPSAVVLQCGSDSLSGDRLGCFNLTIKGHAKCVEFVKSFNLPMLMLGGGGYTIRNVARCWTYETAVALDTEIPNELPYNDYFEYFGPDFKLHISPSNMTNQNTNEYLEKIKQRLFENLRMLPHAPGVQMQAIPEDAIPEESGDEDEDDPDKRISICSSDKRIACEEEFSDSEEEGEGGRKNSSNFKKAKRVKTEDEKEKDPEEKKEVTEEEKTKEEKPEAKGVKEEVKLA

HDAC3 = HDAC3 (Homo sapiens, UniProt O15379); test: HDAC isoform inhibition assay
Chain of HDAC3 (O15379 whole entry, canonical isoform): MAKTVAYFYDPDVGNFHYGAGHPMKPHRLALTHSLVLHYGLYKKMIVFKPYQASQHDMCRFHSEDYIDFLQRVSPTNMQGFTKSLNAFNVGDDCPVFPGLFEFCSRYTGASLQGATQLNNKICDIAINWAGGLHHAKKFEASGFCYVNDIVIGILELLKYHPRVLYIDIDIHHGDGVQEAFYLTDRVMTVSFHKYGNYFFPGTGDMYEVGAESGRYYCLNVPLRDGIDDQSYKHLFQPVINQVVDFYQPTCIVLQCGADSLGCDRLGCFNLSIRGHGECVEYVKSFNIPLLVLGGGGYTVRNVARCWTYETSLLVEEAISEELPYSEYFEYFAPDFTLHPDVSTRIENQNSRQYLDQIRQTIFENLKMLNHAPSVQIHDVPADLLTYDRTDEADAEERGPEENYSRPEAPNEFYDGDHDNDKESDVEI
Chain of HDAC3 (Q9Y618 395-489 partner limits assumed): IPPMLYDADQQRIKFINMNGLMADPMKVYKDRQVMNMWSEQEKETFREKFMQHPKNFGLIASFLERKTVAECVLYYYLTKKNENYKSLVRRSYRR

HDAC6 = molecular target: T1, HDAC6 (Homo sapiens, UniProt Q9UBN7); test: HDAC isoform inhibition assay
T1 sequence (Q9UBN7 1-1215): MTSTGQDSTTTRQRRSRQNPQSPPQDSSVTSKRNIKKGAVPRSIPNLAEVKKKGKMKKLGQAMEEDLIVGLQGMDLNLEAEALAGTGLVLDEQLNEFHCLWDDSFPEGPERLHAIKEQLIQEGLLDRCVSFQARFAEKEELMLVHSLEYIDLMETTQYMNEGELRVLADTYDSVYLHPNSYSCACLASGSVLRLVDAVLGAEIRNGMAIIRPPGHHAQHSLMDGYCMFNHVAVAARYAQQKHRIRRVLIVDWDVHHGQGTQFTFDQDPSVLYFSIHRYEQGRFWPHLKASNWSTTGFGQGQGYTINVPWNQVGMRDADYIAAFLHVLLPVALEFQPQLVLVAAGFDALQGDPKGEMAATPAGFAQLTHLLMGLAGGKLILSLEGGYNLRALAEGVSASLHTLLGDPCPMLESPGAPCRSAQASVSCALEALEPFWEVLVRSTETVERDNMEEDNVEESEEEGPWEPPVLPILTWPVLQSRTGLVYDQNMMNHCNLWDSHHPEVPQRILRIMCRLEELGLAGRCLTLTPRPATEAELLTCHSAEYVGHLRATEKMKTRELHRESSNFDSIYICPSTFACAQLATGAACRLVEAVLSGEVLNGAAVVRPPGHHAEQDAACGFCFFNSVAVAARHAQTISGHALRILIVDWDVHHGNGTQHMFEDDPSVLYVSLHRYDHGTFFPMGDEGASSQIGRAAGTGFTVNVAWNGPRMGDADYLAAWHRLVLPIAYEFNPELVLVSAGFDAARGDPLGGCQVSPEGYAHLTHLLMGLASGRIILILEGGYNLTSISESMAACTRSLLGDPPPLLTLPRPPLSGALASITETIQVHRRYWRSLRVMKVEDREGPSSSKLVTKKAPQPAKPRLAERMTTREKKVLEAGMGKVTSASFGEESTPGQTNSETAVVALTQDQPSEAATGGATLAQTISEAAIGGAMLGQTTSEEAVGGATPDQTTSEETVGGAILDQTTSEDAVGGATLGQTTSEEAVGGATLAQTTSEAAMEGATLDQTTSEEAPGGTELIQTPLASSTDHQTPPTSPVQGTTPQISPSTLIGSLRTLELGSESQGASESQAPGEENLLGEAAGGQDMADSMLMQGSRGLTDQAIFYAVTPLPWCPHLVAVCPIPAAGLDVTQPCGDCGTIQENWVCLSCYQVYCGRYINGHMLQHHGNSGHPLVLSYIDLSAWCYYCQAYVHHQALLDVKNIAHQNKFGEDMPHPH

MiaPaca-2 cells = test: MTS cell proliferation assay, pancreatic cancer cells; details: read-out: inhibition of pancreatic cancer cell lines IC50, Mia Paca-2
SU86.86 cells = test: as above; details: read-out: inhibition of pancreatic cancer cell lines IC50, SU 86.86
Panc04.03 cells [2] = test: Cell cycle analysis by flow cytometry; type: cell-based; details: 5 µM for 24 h, vs vehicle (DMSO)
[3] = system: SU86.86 and Panc04.03 xenografts; test: Xenograft tumor model, SU86.86 and Panc04.03, immunoblot of tumor proteins; type: in vivo, mouse
p21 in BXPC-3 cell line = test: Immunoblot of CDK inhibitor p21 expression; type: cell-based; details: 5 µM for 18 h, vs vehicle (DMSO)
HDAC10 = molecular target: T2, HDAC10 (Homo sapiens, UniProt Q969S8); test: HDAC isoform inhibition assay
T2 sequence (Q969S8 1-669): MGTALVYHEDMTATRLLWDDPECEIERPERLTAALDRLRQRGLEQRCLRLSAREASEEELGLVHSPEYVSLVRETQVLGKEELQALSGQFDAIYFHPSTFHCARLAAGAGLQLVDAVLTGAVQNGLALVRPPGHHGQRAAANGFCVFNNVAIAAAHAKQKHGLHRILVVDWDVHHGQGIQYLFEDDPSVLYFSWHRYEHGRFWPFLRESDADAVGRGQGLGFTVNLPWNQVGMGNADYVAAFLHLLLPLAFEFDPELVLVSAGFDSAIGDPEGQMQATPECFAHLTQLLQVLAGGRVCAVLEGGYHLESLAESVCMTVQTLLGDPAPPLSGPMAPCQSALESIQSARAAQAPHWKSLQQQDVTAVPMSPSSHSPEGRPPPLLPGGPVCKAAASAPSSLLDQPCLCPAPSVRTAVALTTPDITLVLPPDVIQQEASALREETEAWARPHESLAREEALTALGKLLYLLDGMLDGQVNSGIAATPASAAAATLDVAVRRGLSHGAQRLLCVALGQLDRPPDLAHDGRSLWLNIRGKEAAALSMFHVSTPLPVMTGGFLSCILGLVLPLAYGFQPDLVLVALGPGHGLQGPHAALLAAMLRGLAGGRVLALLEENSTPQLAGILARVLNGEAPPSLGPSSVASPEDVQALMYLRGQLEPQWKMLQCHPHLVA

HDAC8 = molecular target: T3, HDAC8 (Homo sapiens, UniProt Q9BY41); test: HDAC isoform inhibition assay
T3 sequence (Q9BY41 1-377): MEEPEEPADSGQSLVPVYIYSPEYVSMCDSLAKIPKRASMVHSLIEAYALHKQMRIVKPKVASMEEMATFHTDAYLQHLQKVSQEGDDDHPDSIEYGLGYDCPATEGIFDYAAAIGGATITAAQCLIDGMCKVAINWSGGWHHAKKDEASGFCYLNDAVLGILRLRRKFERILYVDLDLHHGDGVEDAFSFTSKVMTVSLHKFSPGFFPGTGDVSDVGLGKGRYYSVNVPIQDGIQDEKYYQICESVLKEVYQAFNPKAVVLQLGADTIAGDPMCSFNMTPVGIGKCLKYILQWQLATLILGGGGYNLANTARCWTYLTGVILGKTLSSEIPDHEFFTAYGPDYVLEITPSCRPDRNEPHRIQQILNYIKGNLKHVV

HDAC2 = HDAC2 (Homo sapiens, UniProt Q92769); test: HDAC isoform inhibition assay
Chain of HDAC2 (Q92769 whole entry, canonical isoform): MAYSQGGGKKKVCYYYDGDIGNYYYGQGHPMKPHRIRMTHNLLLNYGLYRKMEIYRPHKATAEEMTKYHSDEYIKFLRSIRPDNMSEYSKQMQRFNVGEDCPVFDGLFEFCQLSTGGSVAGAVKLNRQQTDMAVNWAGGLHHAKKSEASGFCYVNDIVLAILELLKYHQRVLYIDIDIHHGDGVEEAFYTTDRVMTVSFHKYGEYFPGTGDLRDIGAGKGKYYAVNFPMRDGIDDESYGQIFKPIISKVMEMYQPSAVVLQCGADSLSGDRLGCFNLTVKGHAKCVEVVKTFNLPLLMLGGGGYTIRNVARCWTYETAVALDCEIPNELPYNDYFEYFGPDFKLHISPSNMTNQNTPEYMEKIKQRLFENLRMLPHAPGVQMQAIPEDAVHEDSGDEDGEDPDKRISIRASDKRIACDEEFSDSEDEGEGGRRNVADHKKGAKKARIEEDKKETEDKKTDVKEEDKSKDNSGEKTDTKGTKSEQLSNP

IC50 (Panc04.03 cells [1]; Homo sapiens, Panc 04.03, 72 h): < 500 nM
Compound: O=C(CCCCCCC(=O)Nc1cccc(-c2cn(-c3ccccc3)nn2)c1)NO [compound 4a, octanedioic acid hydroxyamide[3-(1-phenyl-1H-[1,2,3]triazol-4-yl)phenyl]amide]
effect on cell cycle profile (Panc04.03 cells [2]): loss of S-phase cells and an increase in the percentage of cells in G1
expression of CDK inhibitors p15, p16, p21, p27 and p57 in xenograft tumors ([3]; 10 and 100 mg/kg i.p. every 12 h for 48 h, athymic nude mice): re-activated
pancreatic cancer cell growth in vivo ([3]; pancreatic tumor cell line xenografts, preliminary in vivo evaluation): suppresses pancreatic cancer cell growth in vivo
expression of p21 protein (p21 in BXPC-3 cell line): increased expression of p21

IC50 (HupT3 cells; Homo sapiens, HuP-T3, 72 h): 200 nM
IC50 (Panc04.03 cells [1]; Homo sapiens, Panc 04.03, 72 h): 1000 nM
IC50 (BxPC-3 cells; Homo sapiens, BXPC-3, 72 h): 1000 nM
IC50 (HDAC1): 3.04 nM
IC50 (HDAC6): 7.6 nM
IC50 (MiaPaca-2 cells; Homo sapiens, MIA PaCa-2, 72 h): 200 nM
IC50 (SU86.86 cells; Homo sapiens, SU.86.86, 72 h): 1000 nM
Compound: O=C(CCCCCCC(=O)Nc1cccc(-c2cn(-c3ccc(CO)cc3)nn2)c1)NO [4f, Octanedioic acid hydroxyamide {3-[1-(4-hydroxymethylphenyl)-1H-[1,2,3]triazol-4-yl]phenyl}amide]

Further lines, the compound ahead of its results:

Compound: COc1ccc(-n2cc(-c3cccc(NC(=O)CCCCCCC(=O)NO)c3)nn2)cc1F [4h, Octanedioic acid {3-[1-(3-fluoro-4-methoxyphenyl)-1H-[1,2,3]-triazol-4-yl]phenyl}amide hydroxyamide]
IC50 (HupT3 cells; Homo sapiens, HuP-T3, 72 h): 50 nM
IC50 (Panc04.03 cells [1]; Homo sapiens, Panc 04.03, 72 h): 100 nM
IC50 (BxPC-3 cells; Homo sapiens, BXPC-3, 72 h): 200 nM
IC50 (HDAC1): 5.06 nM
IC50 (HDAC3): 3.39 nM
IC50 (HDAC6): 3.85 nM
IC50 (MiaPaca-2 cells; Homo sapiens, MIA PaCa-2, 72 h): 100 nM
IC50 (SU86.86 cells; Homo sapiens, SU.86.86, 72 h): 1000 nM

Compound: O=C(CCCCCCC(=O)Nc1ccccc1)NO [SAHA (1a), suberoylanilide hydroxamic acid, reference compound]
IC50 (HupT3 cells; Homo sapiens, HuP-T3, 72 h): 800 nM

Compound: O=C(CCCCCCC(=O)Nc1cccc(-c2cn(C3CCCCC3)nn2)c1)NO [compound 4j, Octanedioic acid [3-(1-cyclohexyl-1H-[1,2,3]triazol-4-yl)phenyl]amide hydroxyamide]
fold more potent than compound 4a, HDAC10 (HDAC10; ratio of IC50 vs 4a): 2- to 3 fold
fold more potent than compound 4a, HDAC1 (HDAC1; ratio of IC50 vs 4a): 2- to 3 fold
fold more potent than compound 4a, HDAC3 (HDAC3): 2- to 3 fold
fold more potent than compound 4a, HDAC8 (HDAC8; ratio of IC50 vs 4a): 2- to 3 fold
fold more potent than compound 4a, HDAC6 (HDAC6; ratio of IC50 vs 4a): 2- to 3 fold
fold more potent than compound 4a, HDAC2 (HDAC2): 2- to 3 fold

Compound: Octanedioic acid (2-aminophenyl)amide [3-(1-phenyl-1H-[1,2,3] triazol-4-yl)phenyl]amide [12a]
IC50 (HupT3 cells; 72 h post treatment): > 50000 nM
IC50 (Panc04.03 cells [1]; 72 h post treatment): > 50000 nM
IC50 (HDAC10; read-out: IC50 HDAC10, tested at Nanosyn, 17 hours at 25 °C): > 30000 nM
IC50 (BxPC-3 cells; 72 h post treatment): > 50000 nM
IC50 (HDAC3; read-out: IC50 HDAC3): 122 ± 9 nM
IC50 (HDAC8; read-out: IC50 HDAC8, tested at Nanosyn, 17 hours at 25 °C): > 30000 nM
IC50 (HDAC6; read-out: IC50 HDAC6, tested at Nanosyn, 17 hours at 25 °C): > 30000 nM
IC50 (MiaPaca-2 cells; 72 h post treatment): > 50000 nM
IC50 (SU86.86 cells; 72 h post treatment): 32000 nM
